Measurements from patent US20240374616A1, “USE OF TERPENOIDS IN THE TREATMENT OF MASTOCYTOMA” (ARJIL BIOTECH HOLDING COMPANY LIMITED, priority 2021, published 2024).

Tests used:
[1] = Cell Counting Kit-8 assay of cell viability on P815 cells; type: cell-based; conditions: mouse, P815 mastocytoma cells, read-out: Cell viability (%) Mean ± SD
Method: Mouse mastocytoma cells purchased from the Bioresource Collection and Research Center (Hsinchu City, Taiwan) and were cultured with Dulbecco's modified Eagle's (DMEM) medium (Gibco, Carlsbad, California, USA) that was supplemented with 10% fetal bovine serum (Gibco, Carlsbad, California, USA), 100 U/ml penicillin, and 100 μg/ml streptomycin.
(§1) 1×10^5 cells per well of P815 cells were pretreated with terpenoids for 18 h. 5 μL Cell Counting Kit-8 reagent was added to each well, incubating for 4 h followed by optical density determination at 450 nm by a microplate reader (Tecan Sunrise). The mean optical density (OD, absorbance) from four wells of the indicated group was used to calculate the percentage of cell viability as the formula as follows: [(ODexperiment-ODblank)/(ODcontrol-ODblank)]×100%, where ODexperiment is the absorbance of cells treated with […] terpenoid-treated cells, and ODblank is the absorbance of a well with medium only. ODcontrol is the absorbance of cells treated with 0.1% DMSO only.
as §1, with “Mouse mastocytoma cells purchased from the Bioresource Collection and Research Center (Hsinchu City, Taiwan) and were cultured with Dulbecco's modified Eagle's (DMEM) medium (Gibco, Carlsbad, California, USA) that was supplemented with 10% fetal bovine serum (Gibco, Carlsbad, California, USA), 100 U/ml penicillin, and 100 μg/ml streptomycin. 1×10^5” for “1×10^5”, “terpenoids-treated” for “terpenoid-treated”

RBL-2H3 cells = assay: β-hexosaminidase release assay in RBL-2H3 cells; type: cell-based; conditions: under the safety dose, compared with DMSO, FIG. 1
Method: β-hexosaminidase Release Assay
RBL-2H3 cells were seeded into 24 well plate (0.5×10^5 cells/0.5 mL/well), and drug treatment was added every other day for 24 hours. On the third day, 500 μL of Anti-DNP-IgE (0.1 μg/mL) was added overnight. On the fourth day, add 160 μL DNP-BSA (0.1 μg/mL in Tyrode's buffer) to each well and react at 37° C. for 1 hour. For each well in 24 wells, 50 μL of cell supernatant was mixed with 50 μL of P-NAG (triplicates), and 96 well plates were reacted at 37° C. for 1 hour. Add 100 μL of stop buffer and measure the absorbance at 405 nm, which is the β-hexosaminidase data. For 24 well plates, add 300 μL of MTT reagent (0.5 mg/mL) to each well, react at 37° C. for 2 hours, remove the supernatant, add 300 μL of DMSO to each well, and measure the absorbance at 570 nm. The data were calculated by one-way ANOVA with Dunnett's test (* […], ** p<0.01, *** p<0.001, **** p<0.0001), and plotted with Graph pad.
The results from triplicate determinations are presented as the percentage of viable cells. Statistical analysis was performed using one-way ANOVA (Dunnett's multiple comparisons test). Results are presented as the mean ±SD from at least three independent experiments. Statistical significance is indicated (ns: no significance, ** p<0.01, *** p<0.001, **** p<0.0001, compared with DMSO).

P815 mast cell tumor = assay: H&E histopathological analysis of P815 tumor tissues; type: in vivo, mice; conditions: FIG. 11; 0.06 mg
Method: Mice were sacrificed on day 30, and tumors were removed, fixed with 10% formalin, 5% formic acid, and embedded in paraffin. Briefly, tumor sections were stained with hematoxylin and eosin (H&E) and analyzed by microscopy. Tissue sections were dewaxed with Xylene, and then treated with ethanol (100%, 95%, 75%, 50%). Tissues were stained with Hematoxylin for 1 minute and Eosin for 5 minutes.
The mice were administrated 100 μL samples intravenously every 2 days and sacrificed on the 30th day for histopathological examinations.

| Compound | viability at 18 h, 1 mg/mL ([1]; 1 mg/mL) [%] | viability at 18 h, 2 mg/mL ([1]; 2 mg/mL) [%] | viability at 18 h, 3 mg/mL ([1]; 3 mg/mL) [%] | viability at 18 h, 4 mg/mL ([1]; 4 mg/mL) [%] | viability at 18 h, 5 mg/mL ([1]; 5 mg/mL) [%] | β-hexosaminidase release (RBL-2H3 cells) | viability at 18 h, 0.02 mg/mL ([1]; 0.02 mg/mL) [%] | viability at 18 h, 0.04 mg/mL ([1]; 0.04 mg/mL) [%] | viability at 18 h, 0.06 mg/mL ([1]; 0.06 mg/mL) [%] | viability at 18 h, 0.08 mg/mL ([1]; 0.08 mg/mL) [%] | viability at 18 h, 0.1 mg/mL ([1]; 0.1 mg/mL) [%] | H&E histological stain of tumor tissues (P815 mast cell tumor) |
| --- | --- | --- | --- | --- | --- | --- | --- | --- | --- | --- | --- | --- |
| C=C1C(=O)O[C@H]2/C=C(\C)CC3C=C(CC/C=C(\C)CC[C@H]12)C(=O)O3 (stereo partly drawn) [AR100-DS1, Ovatodiolide] | 42.4 ± 1.84 | 39.5 ± 3.09 | 40.8 ± 1.25 | 43.3 ± 0.65 | 41.4 ± 1.81 | significantly lower |  |  |  |  |  |  |
| C=C(CC[C@@H](C(=O)O)[C@H]1CC[C@@]2(C)C3=CC[C@H]4C(C)(C)[C@@H](O)CC[C@]4(C)C3=CC[C@]12C)C(C)C [AR101-DS4, Dehydroeburicoic Acid] |  |  |  |  |  |  | 181 ± 30.4 | 69.3 ± 4.58 | 49.7 ± 2.62 | 54.3 ± 1.85 | 49.1 ± 2.52 | arrest the tumor cell proliferation and cause the tumor cell nucleus aggregation |
